Test results from patent US20070299072A1, “KV1.5 POTASSIUM CHANNEL INHIBITORS” (Wyeth, priority 2006, published 2007).

Columns and labels:
Format in all cases: cell-based
HERG = molecular target: T1, HERG (Homo sapiens, UniProt Q12809); assay: HERG Patch Clamp EP (whole cell patch clamp, tail currents; single point at 10 μM and IC50); settings: for inhibition at 10 µM: human, HEK cells stably overexpressing HERG, single point at 10 μM, HERG in HEK cells, read-out: HERG % Inhib. @ 10 μM; for IC50: concentration response
T1 construct: expressed in transfected cells; host or cells: HEK cells
Description: The external solution is standard Tyrodes solution.

L-type calcium channels = assay: FLIPR L-type Calcium Channel Assay (calcium influx in HL-1 cells after KCl); settings: read-out: L-type Ca2+ IC50
Outline: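 HL-1 cardiomyocytes loaded with FLIPR calcium dye for 60 min at 37° C in Tyrode's pH 7.35 with 2.5 mM probenecid, then preincubated 15 min with compounds. Channels were opened by 20 mM KCl final, and fluorescence was recorded for 5 min. Influx expressed as % control gave concentration-response IC50.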

Kv1.5 = molecular target: T2, Kv1.5 (Homo sapiens, UniProt P22460); assay: Kv1.5 Patch Clamp EP (whole cell patch clamp; single point at 1 μM and IC50); settings: for inhibition at 1 µM: single point at 1.0 μM, Kv1.5 stably over expressed in HEK or LTK- cells; for IC50: concentration response
T2 construct: expressed in transfected cells; host or cells: HEK or LTK- cells
Method: The external solution is standard Tyrodes solution. […] Inhibition was measured at the end of the 1 second pulses and expressed relative to controls. Initial Kv1.5 inhibition is estimated by single point determinations done at 1 μM.

T1 sequence (Q12809 whole entry): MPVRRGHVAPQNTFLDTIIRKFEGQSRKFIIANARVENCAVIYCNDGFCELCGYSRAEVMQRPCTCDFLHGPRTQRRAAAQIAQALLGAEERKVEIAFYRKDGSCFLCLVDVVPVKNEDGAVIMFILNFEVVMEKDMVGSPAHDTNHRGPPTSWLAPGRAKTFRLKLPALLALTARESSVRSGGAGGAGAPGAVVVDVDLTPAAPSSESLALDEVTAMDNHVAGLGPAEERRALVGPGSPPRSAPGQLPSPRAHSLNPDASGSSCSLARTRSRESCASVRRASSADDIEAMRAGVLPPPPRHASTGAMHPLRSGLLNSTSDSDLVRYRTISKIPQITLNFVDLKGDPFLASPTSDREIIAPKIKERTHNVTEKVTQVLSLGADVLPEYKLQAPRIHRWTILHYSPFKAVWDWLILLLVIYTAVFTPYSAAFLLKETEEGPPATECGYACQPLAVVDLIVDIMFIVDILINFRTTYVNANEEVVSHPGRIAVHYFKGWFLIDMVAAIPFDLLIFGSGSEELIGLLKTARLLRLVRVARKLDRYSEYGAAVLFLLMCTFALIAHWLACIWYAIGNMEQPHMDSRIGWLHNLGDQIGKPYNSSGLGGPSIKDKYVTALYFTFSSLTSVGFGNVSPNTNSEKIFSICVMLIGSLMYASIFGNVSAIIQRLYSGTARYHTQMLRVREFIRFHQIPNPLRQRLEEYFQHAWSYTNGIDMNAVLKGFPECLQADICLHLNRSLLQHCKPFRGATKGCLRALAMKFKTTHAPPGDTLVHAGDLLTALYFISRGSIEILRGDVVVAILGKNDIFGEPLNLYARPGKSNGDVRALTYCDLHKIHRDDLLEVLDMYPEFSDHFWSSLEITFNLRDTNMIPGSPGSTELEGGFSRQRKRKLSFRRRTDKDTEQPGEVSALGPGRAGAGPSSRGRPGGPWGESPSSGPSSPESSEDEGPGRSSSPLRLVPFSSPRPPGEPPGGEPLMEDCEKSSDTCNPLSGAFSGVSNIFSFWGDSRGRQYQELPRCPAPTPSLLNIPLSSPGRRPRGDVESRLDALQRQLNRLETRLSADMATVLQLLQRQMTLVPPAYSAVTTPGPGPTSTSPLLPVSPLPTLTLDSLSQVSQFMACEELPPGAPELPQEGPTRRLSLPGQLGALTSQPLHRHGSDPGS
T2 sequence (P22460 whole entry): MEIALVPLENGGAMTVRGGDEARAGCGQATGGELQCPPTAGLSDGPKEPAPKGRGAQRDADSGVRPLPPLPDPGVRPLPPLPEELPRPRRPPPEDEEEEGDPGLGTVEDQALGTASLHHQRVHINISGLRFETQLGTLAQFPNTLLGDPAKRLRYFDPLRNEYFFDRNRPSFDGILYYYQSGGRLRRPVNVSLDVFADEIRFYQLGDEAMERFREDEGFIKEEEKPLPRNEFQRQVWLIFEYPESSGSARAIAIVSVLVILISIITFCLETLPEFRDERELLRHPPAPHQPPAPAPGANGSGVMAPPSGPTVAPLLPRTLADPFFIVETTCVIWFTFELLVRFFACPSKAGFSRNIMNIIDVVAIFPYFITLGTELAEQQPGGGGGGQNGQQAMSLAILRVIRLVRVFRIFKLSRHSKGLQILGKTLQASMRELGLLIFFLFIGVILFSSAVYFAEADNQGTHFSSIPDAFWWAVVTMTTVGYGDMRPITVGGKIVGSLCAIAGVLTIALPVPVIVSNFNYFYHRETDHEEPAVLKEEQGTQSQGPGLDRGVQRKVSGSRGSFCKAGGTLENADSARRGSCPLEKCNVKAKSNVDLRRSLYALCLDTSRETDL

Row | IC50 (L-type calcium channels) | inhibition at 1 µM (Kv1.5) | IC50 (Kv1.5) | Structure (SMILES) | inhibition at 10 µM (HERG) | IC50 (HERG)
1 | 14 µM | 81% |  | COc1ccc(CCN2C(=O)C3(CCN(S(C)(=O)=O)CC3)N(C(=O)C(F)(F)F)C2c2ccc(C3CC3)cc2)cc1 (centres unmarked) [Compound 92, 2-(4-cyclopropylphenyl)-3-[2-(4-methoxyphenyl)ethyl]-8-(methylsulfonyl)-1-(trifluoroacetyl)-1,3,8-triazaspiro[4.5]decan-4-one] | 73% | 
2 | 12 µM | 96% | 0.393 µM | COc1ccc(CCN2C(=O)C3(CCN(C(=O)OC(C)(C)C)CC3)NC2Cc2ccc(C(C)(C)C)cc2)cc1 (centres unmarked) [Compound 96, 2-(4-tert-butylbenzyl)-3-[2-(4-methyoxyphenyl)ethyl]-4-oxo-1,3,8-triaza-spiro[4.5]decane-8-carboxylic acid tert-butyl ester] | 12% | 
3 | 13 µM | 90% | 0.32 µM | COc1ccc(CCN2C(=O)C3(CCN(C(N)=O)CC3)N(C)[C@@H]2c2ccc(C3CC3)cc2)cc1 [Compound 98, (S)-2-(4-cyclopropylphenyl)-3-[2-(4-methoxyphenyl)ethyl]-1-methyl-4-oxo-1,3,8-triaza-spiro[4.5]decane-8-carboxylic acid amide] | 13% | 13 µM
4 | 24 µM | 80% | 0.397 µM | COc1ccc(CCN2C(=O)C3(CCN(C(N)=O)CC3)N(C)[C@H]2c2ccc(C3CC3)cc2)cc1 [Compound 99, (R)-2-(4-cyclopropylphenyl)-3-[2-(4-methoxyphenyl)ethyl]-1-methyl-4-oxo-1,3,8-triaza-spiro[4.5]decane-8-carboxylic acid amide] | 24% | 16 µM
